In general, IC50 refers to the concentration that inhibits the measured activity by half.

Assay type in all cases: biochemical
For one experiment, the target named is CLK3 (Homo sapiens (Human), UniProt P49761). In words: Inhibition of CLK3 kinase activity evaluated at Nanosyn (ADP-Glo). Conditions: ADP-Glo luminescence. An outline of the steps:
(§1)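 ADP-Glo luminescence (40 min depletion, 10 min detection) quantifies ADP from ATP-initiated phosphorylation of substrate by each CLK isoform in HEPES pH 7.5 buffer, 1% DMSO, assay-specific incubation. %-inhibition calculated against uninhibited and enzyme-free controls.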
In general terms: ADP-Glo first removes unused ATP, then detects ADP through luciferase.

A further experiment concerns the target EGFR WT (Homo sapiens (Human), UniProt P00533). In words: HotSpot radiometric kinase assay (Reaction Biology), EGFR WT. Conditions: 10 μM ATP. An outline of the steps: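 Kinase, substrate and cofactors are mixed in 20 mM Hepes pH 7.5 with 10 mM MgCl2, 1 mM EGTA, 2 mM DTT and 1% DMSO. Compound is added, and about 20 min later ATP/33P-ATP (10 μM final) starts a 120-min room-temperature reaction, which is then spotted onto P81 paper.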

The next experiment addresses CLK1 (Homo sapiens (Human), UniProt P49759). In words: Inhibition of CLK1 kinase activity evaluated at Nanosyn (ADP-Glo). Conditions: ADP-Glo luminescence. An outline of the steps:
as §1

Experiment [1] deals with EGFR Δ746-750/C797S mutant (Homo sapiens (Human), UniProt P00533, C797S/DEL746-750). The experiment is described as follows: HotSpot radiometric kinase assay, EGFR Δ746-750/C797S mutant. Conditions: 10 μM ATP. An outline of the steps:
(§2)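 Enzyme and substrate pairs were exposed to inhibitor for roughly 20 min before radiolabelled ATP (10 μM final) was introduced; the reaction proceeded 120 min at ambient temperature in pH 7.5 buffer with 1% DMSO, and phosphorylated product was captured on P81 filters for IC50 determination.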

For a further experiment, the target named is EGFR (D770_N771insNPG) (Homo sapiens (Human), UniProt P00533, INS770NPG). In words: HotSpot radiometric kinase assay, EGFR (D770_N771insNPG). Conditions: 10 μM ATP, read-out: EGFR (Δ770_N771insNPG) IC50. An outline of the steps:
as §2

The target in the next experiment is EGFR L858R mutant (Homo sapiens (Human), UniProt P00533, L858R). In words: HotSpot radiometric kinase assay, EGFR L858R mutant. Conditions: 10 μM ATP. An outline of the steps: as §2
Another experiment addresses EGFR Δ746-750 mutant (Homo sapiens (Human), UniProt P00533, DEL746-750). The experiment is described as follows: HotSpot radiometric kinase assay, EGFR Δ746-750 mutant. Conditions: 10 μM ATP. An outline of the steps: as §2
Another experiment deals with EGFR L858R/T790M mutant (Homo sapiens (Human), UniProt P00533, L858R/T790M). In words: HotSpot radiometric kinase assay, EGFR L858R/T790M mutant. Conditions: 10 μM ATP. An outline of the steps: as §2
For another experiment, the target named is CLK2 (Homo sapiens (Human), UniProt P49760). The experiment is described as follows: Inhibition of CLK2 kinase activity evaluated at Nanosyn (ADP-Glo). Conditions: ADP-Glo luminescence. An outline of the steps: as §1
The target of another experiment is CLK4 (Homo sapiens (Human), UniProt Q9HAZ1). The experiment is described as follows: Inhibition of CLK4 kinase activity evaluated at Nanosyn (ADP-Glo). To be noted: ADP-Glo luminescence. An outline of the steps: as §1
Experiment [2] deals with EGFR L858R/T790M/C797S mutant (Homo sapiens (Human), UniProt P00533, C797S/L858R/T790M). In words: HotSpot radiometric kinase assay, EGFR L858R/T790M/C797S mutant. To be noted: 10 μM ATP. An outline of the steps: as §2

EGFR Δ746-750 mutant, sequence (P00533 other isoform, or with tags, fused parts or gaps del 1-668/del 746-750 limits assumed): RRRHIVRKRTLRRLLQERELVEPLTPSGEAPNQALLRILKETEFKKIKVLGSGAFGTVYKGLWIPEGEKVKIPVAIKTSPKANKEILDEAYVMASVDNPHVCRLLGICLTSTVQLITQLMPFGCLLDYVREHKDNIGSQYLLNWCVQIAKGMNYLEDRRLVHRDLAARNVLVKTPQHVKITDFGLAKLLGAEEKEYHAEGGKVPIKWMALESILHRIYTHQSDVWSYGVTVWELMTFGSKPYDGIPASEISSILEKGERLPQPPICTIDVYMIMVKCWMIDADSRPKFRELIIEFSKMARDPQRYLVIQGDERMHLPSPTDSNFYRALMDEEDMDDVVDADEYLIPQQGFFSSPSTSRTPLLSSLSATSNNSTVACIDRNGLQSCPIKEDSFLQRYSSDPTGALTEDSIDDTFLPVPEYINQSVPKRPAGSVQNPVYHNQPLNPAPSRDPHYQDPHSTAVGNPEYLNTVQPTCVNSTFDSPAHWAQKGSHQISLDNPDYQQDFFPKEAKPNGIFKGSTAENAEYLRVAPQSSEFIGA
EGFR (D770_N771insNPG), sequence (P00533 other isoform, or with tags, fused parts or gaps del 1-668/ins NPG behind 770 limits assumed): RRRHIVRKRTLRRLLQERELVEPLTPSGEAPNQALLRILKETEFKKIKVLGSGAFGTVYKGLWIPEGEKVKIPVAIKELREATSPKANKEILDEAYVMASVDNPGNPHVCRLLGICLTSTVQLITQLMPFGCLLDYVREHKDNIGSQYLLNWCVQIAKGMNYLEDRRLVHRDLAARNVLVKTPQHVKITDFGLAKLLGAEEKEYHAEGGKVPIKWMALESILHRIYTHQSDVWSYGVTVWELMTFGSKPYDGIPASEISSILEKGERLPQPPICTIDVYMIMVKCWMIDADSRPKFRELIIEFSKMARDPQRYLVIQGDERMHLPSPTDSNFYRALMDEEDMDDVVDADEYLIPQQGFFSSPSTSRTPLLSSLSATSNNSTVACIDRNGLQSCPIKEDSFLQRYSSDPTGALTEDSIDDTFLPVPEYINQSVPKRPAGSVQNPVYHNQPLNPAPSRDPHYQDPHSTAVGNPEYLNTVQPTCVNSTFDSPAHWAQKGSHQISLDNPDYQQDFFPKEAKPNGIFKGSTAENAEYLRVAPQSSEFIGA
EGFR Δ746-750/C797S mutant, sequence (P00533 other isoform, or with tags, fused parts or gaps C797S/del 1-668/del 746-750 limits assumed): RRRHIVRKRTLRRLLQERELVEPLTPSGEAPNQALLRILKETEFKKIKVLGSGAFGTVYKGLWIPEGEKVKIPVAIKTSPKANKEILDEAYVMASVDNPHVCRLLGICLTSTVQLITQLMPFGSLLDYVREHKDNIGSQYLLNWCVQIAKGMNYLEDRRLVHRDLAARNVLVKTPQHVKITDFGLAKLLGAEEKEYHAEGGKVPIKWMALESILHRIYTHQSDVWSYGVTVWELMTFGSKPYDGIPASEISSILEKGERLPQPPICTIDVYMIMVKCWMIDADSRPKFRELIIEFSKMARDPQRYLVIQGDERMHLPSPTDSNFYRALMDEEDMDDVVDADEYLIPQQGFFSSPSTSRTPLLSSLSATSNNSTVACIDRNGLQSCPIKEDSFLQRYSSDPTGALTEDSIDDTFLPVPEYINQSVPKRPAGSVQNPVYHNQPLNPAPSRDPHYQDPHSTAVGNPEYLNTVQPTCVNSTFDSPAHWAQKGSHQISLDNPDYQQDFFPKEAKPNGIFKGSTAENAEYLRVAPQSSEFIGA
EGFR WT, sequence (P00533 25-1210): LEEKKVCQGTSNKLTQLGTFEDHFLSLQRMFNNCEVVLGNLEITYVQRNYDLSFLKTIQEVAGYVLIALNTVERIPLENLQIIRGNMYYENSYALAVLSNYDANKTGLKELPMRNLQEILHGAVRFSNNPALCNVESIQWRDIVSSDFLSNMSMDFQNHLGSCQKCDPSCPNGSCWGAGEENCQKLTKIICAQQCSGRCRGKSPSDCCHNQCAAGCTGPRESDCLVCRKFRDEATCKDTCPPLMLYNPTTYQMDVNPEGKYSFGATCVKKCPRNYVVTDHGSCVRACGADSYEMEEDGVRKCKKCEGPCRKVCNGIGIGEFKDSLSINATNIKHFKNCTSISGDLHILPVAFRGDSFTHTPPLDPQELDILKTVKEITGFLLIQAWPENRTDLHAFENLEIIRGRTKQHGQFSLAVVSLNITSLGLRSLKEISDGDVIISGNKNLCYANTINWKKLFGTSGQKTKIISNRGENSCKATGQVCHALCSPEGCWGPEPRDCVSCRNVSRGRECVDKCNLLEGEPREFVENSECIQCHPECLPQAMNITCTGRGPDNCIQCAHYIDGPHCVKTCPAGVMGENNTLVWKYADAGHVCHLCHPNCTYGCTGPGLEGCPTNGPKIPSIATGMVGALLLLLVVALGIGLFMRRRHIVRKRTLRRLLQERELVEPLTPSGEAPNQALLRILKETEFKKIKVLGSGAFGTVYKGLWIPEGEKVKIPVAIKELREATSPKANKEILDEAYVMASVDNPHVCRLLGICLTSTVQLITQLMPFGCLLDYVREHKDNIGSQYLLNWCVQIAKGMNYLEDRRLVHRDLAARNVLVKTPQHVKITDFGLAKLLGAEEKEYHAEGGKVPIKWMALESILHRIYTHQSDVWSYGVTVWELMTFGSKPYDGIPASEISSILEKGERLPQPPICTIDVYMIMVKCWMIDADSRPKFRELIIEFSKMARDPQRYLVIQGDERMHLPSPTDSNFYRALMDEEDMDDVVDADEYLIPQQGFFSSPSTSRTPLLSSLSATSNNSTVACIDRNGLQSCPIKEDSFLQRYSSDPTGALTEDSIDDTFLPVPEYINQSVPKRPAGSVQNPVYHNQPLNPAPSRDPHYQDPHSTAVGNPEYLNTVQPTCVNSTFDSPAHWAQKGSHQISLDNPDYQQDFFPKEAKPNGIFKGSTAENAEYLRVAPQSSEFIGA
CLK1, sequence (P49759 whole entry): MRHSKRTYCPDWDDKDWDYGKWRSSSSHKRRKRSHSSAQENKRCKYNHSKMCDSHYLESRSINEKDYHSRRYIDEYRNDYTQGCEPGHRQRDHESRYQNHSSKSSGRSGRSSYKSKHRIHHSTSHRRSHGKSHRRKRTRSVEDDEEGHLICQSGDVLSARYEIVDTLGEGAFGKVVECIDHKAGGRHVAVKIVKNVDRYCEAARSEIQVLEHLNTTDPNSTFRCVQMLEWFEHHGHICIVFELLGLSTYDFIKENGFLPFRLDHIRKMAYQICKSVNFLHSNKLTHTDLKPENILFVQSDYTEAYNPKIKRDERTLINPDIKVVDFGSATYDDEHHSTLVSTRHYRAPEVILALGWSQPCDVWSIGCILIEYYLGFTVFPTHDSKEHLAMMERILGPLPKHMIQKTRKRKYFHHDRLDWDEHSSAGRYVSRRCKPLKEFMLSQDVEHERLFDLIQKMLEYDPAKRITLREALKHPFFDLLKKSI
CLK4, sequence (Q9HAZ1 whole entry): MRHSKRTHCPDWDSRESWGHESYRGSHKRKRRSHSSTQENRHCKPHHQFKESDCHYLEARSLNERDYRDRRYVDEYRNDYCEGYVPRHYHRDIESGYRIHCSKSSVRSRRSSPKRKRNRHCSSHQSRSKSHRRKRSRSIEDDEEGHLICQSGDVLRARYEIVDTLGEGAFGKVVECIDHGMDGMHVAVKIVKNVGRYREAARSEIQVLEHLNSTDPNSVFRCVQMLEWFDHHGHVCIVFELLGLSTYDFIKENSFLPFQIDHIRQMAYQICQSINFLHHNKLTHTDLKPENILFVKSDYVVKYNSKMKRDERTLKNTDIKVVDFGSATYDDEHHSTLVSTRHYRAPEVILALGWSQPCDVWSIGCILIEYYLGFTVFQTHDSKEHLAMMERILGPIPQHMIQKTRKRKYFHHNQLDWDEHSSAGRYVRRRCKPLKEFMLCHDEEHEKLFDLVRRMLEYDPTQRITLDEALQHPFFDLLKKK
EGFR L858R/T790M mutant, sequence (P00533 25-1210 T790M/L858R): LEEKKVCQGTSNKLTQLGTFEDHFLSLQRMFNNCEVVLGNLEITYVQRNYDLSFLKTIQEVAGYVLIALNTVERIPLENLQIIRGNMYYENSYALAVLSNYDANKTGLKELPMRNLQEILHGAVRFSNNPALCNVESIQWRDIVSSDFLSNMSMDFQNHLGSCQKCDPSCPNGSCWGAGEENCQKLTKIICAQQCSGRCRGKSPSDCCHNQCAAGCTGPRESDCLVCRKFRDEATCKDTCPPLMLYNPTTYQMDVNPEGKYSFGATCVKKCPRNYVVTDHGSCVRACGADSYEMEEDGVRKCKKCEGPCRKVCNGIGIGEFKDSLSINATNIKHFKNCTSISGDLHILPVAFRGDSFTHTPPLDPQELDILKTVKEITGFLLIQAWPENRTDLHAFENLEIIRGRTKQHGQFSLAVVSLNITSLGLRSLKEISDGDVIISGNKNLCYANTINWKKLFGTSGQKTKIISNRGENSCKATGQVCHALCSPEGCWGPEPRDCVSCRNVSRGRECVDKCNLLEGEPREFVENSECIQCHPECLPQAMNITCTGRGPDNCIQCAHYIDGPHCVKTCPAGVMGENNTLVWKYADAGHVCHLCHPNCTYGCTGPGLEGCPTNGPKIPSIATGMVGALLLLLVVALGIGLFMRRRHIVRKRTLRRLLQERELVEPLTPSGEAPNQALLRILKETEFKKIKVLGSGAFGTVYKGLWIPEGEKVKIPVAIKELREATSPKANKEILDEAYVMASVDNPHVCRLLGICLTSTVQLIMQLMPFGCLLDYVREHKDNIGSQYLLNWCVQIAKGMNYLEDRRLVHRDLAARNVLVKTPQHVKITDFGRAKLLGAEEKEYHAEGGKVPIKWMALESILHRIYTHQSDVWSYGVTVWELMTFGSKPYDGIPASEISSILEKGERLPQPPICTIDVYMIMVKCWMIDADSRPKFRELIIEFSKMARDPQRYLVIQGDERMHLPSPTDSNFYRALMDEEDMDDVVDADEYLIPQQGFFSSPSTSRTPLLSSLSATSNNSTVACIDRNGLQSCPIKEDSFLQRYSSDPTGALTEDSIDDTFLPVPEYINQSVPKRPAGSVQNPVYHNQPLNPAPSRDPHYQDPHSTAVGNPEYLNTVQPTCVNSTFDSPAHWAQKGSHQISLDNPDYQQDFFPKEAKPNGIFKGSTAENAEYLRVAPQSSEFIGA

For the compound `CC(C)Oc1nn(CCO)c2c1/C=C/c1n[nH]c3cc(F)c(cc13)-c1cnn(C)c1O[C@@H]1CCCN(C2)C1` [Example 199, 2-[(10R,19E)-22-fluoro-8-methyl-18-[(propan-2-yl)oxy]-2,10,11,12,13,15-hexahydro-3,5-etheno-10,14-methanotripyrazolo[3,4-h:3′,4′-l:4″,3″- p][1,6]oxazacycloheptadecin-16(8H)-yl]ethan-1-ol], the 50% inhibitory concentration (IC50) was 19.3 nM on CLK3; 1280 nM at EGFR WT; 1.05 nM on CLK1; 42.5 nM in experiment [1]; greater than 1000 nM on EGFR (D770_N771insNPG); 87.8 nM on EGFR L858R mutant. In addition, the IC50 turned out to be 147 nM against EGFR Δ746-750 mutant; 64.4 nM against EGFR L858R/T790M mutant; 2.29 nM at CLK2; 1.79 nM on CLK4; 43.9 nM in experiment [2].

In the case of `CC(C)Oc1nn(CCO)c2c1/C=C/c1n[nH]c3cc(F)c(cc13)-c1cnn(C)c1O[C@H](C)[C@H]1CCCN1C2` (single isomer, unassigned) [Example 255], the IC50 at CLK3 came to 9.89 nM; against EGFR WT, 1.43 nM; at CLK1, 0.82 nM; in [1], 1.98 nM; on EGFR (D770_N771insNPG) it was 4.05 nM; at EGFR L858R mutant, 1.18 nM. Moreover, the IC50 worked out at 0.95 nM against EGFR Δ746-750 mutant; 3.01 nM against EGFR L858R/T790M mutant; 0.27 nM at CLK2; 1.6 nM at CLK4; 6.62 nM in experiment [2].

Turning to `CCc1noc2c1/C=C/c1n[nH]c3ccc(cc13)-c1cnn(C)c1O[C@@H](C)CN(C)C2` [Example 174, (10S,17E)-16-ethyl-8,10,12-trimethyl-2,8,10,11,12,13-hexahydro-3,5-etheno[1,2]oxazolo[5,4-f]dipyrazolo[3,4-j:4′,3′-n][1,4]oxazacyclopentadecine], the IC50 at CLK3 turned out to be 128 nM; on EGFR WT, 752 nM; at CLK1 it was 0.16 nM; in experiment [1] it was 27.2 nM; on EGFR (D770_N771insNPG), 996 nM; against EGFR L858R mutant it was 127 nM. Further, the 50% inhibitory concentration (IC50) against EGFR Δ746-750 mutant is 133 nM; on EGFR L858R/T790M mutant it was 10.9 nM; at CLK2, 0.21 nM; at CLK4 it was 0.51 nM; in experiment [2], 4.88 nM.

Consider `Cc1nn(CCO)c2c1/C=C/c1n[nH]c3ccc(cc13)-c1cnn(C)c1O[C@@H](C)CN(C)C2` [Example 61, 2-[(10S,17E)-8,10,12,16-tetramethyl-2,8,10,11,12,13-hexahydro-14H-3,5-ethenotripyrazolo[3,4-f:3′,4′-j:4″,3″- n][1,4]oxazacyclopentadecin-14-yl]ethan-1-ol], for which the IC50 on CLK3 stood at 21.4 nM; at EGFR WT, 6.19 nM; on CLK1, 0.21 nM; in experiment [1], 1.96 nM; on EGFR (D770_N771insNPG), 9.21 nM; at EGFR L858R mutant, 1.23 nM. Moreover, the 50% inhibitory concentration (IC50) against EGFR Δ746-750 mutant came to 1.08 nM; against EGFR L858R/T790M mutant, 0.29 nM; at CLK2, 0.06 nM; at CLK4, 0.76 nM; in [2] it was 0.17 nM.

As to `CCOc1nn(CCO)c2c1/C=C/c1n[nH]c3cc(F)c(cc13)-c1cnn(C)c1O[C@@H]1CCCN(C2)C1` [Example 191, 2-[(10R,19E)-18-ethoxy-22-fluoro-8-methyl-2,10,11,12,13,15-hexahydro-3,5-etheno-10,14-methanotripyrazolo[3,4-h:3′,4′-l:4″,3″-p][1,6]oxazacycloheptadecin-16(8H)-yl]ethan-1-o], the 50% inhibitory concentration (IC50) came to 43.4 nM at CLK3; 19.8 nM on EGFR WT; 2.42 nM on CLK1; 4.19 nM in experiment [1]; 102 nM at EGFR (D770_N771insNPG); 5.61 nM on EGFR L858R mutant. Besides, the IC50 on EGFR Δ746-750 mutant was 9.04 nM; against EGFR L858R/T790M mutant, 4.23 nM; on CLK2 it was 4.37 nM; at CLK4, 2.41 nM; in experiment [2] it was 2.63 nM.

Consider `CCOc1nn(C)c2c1/C=C/c1n[nH]c3cc(F)c(cc13)-c1cnn(C)c1OC1CCCN(C2)C1` (stereo in doubt) [Example 178], for which the IC50 on CLK3 amounted to 61.8 nM; on EGFR WT, 22.2 nM; at CLK1, 1.08 nM; in experiment [1] it was 5.25 nM; at EGFR (D770_N771insNPG), 232 nM; against EGFR L858R mutant, 8.73 nM. The half-maximal inhibitory concentration (IC50) on EGFR Δ746-750 mutant stood at 6.9 nM; on EGFR L858R/T790M mutant it was 4.35 nM; on CLK2, 2.38 nM; at CLK4, 1.56 nM; in experiment [2], 19.3 nM.

As for `CCOc1nn(C)c2c1/C=C/c1n[nH]c3ccc(cc13)-c1cnn(C)c1O[C@@H](C)CN(C(C)C)C2` [Example 156, (10S,17E)-16-ethoxy-8,10,14-trimethyl-12-(propan-2-yl)-2,10,11,12,13,14-hexahydro-8H-3,5-ethenotripyrazolo[3,4-f:3′,4′-j:4″,3″-n][1,4]oxazacyclopentadecine], the half-inhibitory concentration (IC50) at CLK3 turned out to be 63.6 nM; against EGFR WT, 19.3 nM; at CLK1 it was 0.42 nM; in experiment [1], 3.62 nM; on EGFR (D770_N771insNPG), 64.9 nM; against EGFR L858R mutant it was 4.34 nM. The half-inhibitory concentration (IC50) against EGFR Δ746-750 mutant was found to be 1.77 nM; on EGFR L858R/T790M mutant, 0.88 nM; at CLK2, 0.13 nM; at CLK4 it was 0.4 nM; in experiment [2] it was 1.04 nM.

For `Cc1nn(CCO)c2c1/C=C/c1n[nH]c3cc(F)c(cc13)-c1cnn(C)c1O[C@@H](C)CN(C)C2` [Example 116, 2-[(10S,17E)-19-fluoro-8,10,12,16-tetramethyl-2,8,10,11,12,13-hexahydro-14H-3,5-ethenotripyrazolo[3,4-f:3′,4′-j:4″,3″-n][1,4]oxazacyclopentadecin-14-yl]ethan-1-ol], the 50% inhibitory concentration (IC50) worked out at 10.9 nM at CLK3; 3.98 nM against EGFR WT; 0.11 nM at CLK1; 2.85 nM in experiment [1]; 18.5 nM at EGFR (D770_N771insNPG); 0.58 nM at EGFR L858R mutant. For the same compound, the IC50 against EGFR Δ746-750 mutant is 1.06 nM; on EGFR L858R/T790M mutant, 0.38 nM; on CLK2, 0.04 nM; at CLK4 it was 0.4 nM; in [2], 2.71 nM.

Take `Cc1nn(C)c2c1/C=C/c1n[nH]c3ccc(cc13)-c1cnn(C)c1O[C@@H](C)CN(C)[C@@H]2C` (single isomer, unassigned) [Example 144]: the IC50 at CLK3 was 168 nM; against EGFR WT it was 8.81 nM; on CLK1, 0.21 nM; in experiment [1] it was 1.93 nM; at EGFR (D770_N771insNPG) it was 24.5 nM; on EGFR L858R mutant, 1.47 nM. The IC50 is 1.88 nM against EGFR Δ746-750 mutant; 0.41 nM at EGFR L858R/T790M mutant; 0.05 nM on CLK2; 0.55 nM on CLK4; 0.7 nM in experiment [2].

On to `CCN1Cc2c(c(OC(C)C)nn2C[C@H](C)O)/C=C/c2n[nH]c3ccc(cc23)-c2cnn(C)c2O[C@H](C)C1` [Example 227, (2S)-1-{(10R,17E)-12-ethyl-8,10-dimethyl-16-[(propan-2-yl)oxy]-2,8,10,11,12,13-hexahydro-14H-3,5-ethenotripyrazolo[3,4-f:3′,4′-j:4″,3″- n][1,4]oxazacyclopentadecin-14-yl}propan-2-ol], for which the concentration for half-maximal inhibition (IC50) on CLK3 came out at 471 nM; at EGFR WT it was 251 nM; at CLK1, 4.9 nM; in [1], 6.82 nM; on EGFR (D770_N771insNPG), 167 nM; against EGFR L858R mutant it was 60.1 nM. The 50% inhibitory concentration (IC50) at EGFR Δ746-750 mutant amounted to 9.86 nM; against EGFR L858R/T790M mutant, 0.84 nM; at CLK2, 2.59 nM; at CLK4 it was 4.63 nM; in experiment [2], 0.36 nM.

For `Cc1nn(CCO)c2c1/C=C/c1n[nH]c3cc(Cl)c(cc13)-c1cnn(C)c1O[C@@H](C)CN(C)C2` [Example 125, 2-[(10S,17E)-19-chloro-8,10,12,16-tetramethyl-2,8,10,11,12,13-hexahydro-14H-3,5-ethenotripyrazolo[3,4-f:3′,4′-j:4″,3″-n][1,4]oxazacyclopentadecin-14-yl]ethan-1-ol], the IC50 at CLK3 was 1000 nM; against EGFR WT, 138 nM; at CLK1, 3.44 nM; in experiment [1] it was 4.99 nM; at EGFR (D770_N771insNPG), 175 nM; on EGFR L858R mutant, 11.9 nM. In addition, the IC50 against EGFR Δ746-750 mutant was 20.6 nM; against EGFR L858R/T790M mutant, 43.6 nM; on CLK2, 2.81 nM; on CLK4, 4.31 nM; in experiment [2], 7.49 nM.

The record behind these values is patent US20250353864A1, “INDAZOLE CONTAINING MACROCYCLES AND THEIR USE” (BLOSSOMHILL THERAPEUTICS, INC., priority 2022, published 2025).
